Results reported in patent US20080132458A1, “Hypoxia-Activated Anti-Cancer Agents” (Threshold Pharmaceuticals, Inc., priority 2004, published 2008).

The compounds below were run on CD1 Mice (assay: toxicity in healthy mice: weight loss after a single intravenous dose, observed for seven days). Settings: single 20 mg/kg dose intravenously.
Assay type: in vivo, mouse
Experimental: CD1 Mice were injected intravenously with a single 20 mg/kg dose each of compounds 2a, 2b, daunorubicin, and vehicle and observed for seven days, before euthanization. […] Thus, compounds of the invention appear to be less toxic than Daunorubicin when administered to healthy mice.
In the case of `COc1cccc2c1C(=O)c1c(O)c3c(c(O)c1C2=O)C[C@@](O)(C(C)=O)C[C@@H]3O[C@H]1C[C@H](N)[C@H](O)[C@H](C)O1` [Daunorubicin, reference compound], the “weight loss as compared with the control group” value was “Significant weight loss”.
`COc1cccc2c1C(=O)c1c(O)c3c(c(O)c1C2=O)C[C@@](O)(C(C)=O)C[C@@H]3O[C@H]1CC2[C@H](OCOCN2C(=O)OCc2cnc([N+](=O)[O-])n2C)[C@H](C)O1` (stereo partly drawn) [Compound 2a] was tested, and the “weight loss as compared with the control group” value was “did not undergo significant weight loss”.
In the case of `COc1cccc2c1C(=O)c1c(O)c3c(c(O)c1C2=O)C[C@@](O)(C(C)=O)C[C@@H]3O[C@H]1CC2[C@H](OCOCN2C(=O)OCc2ncc([N+](=O)[O-])n2C)[C@H](C)O1` (stereo partly drawn) [Compound 2b], the “weight loss as compared with the control group” value was “did not undergo significant weight loss”.
